Assay results from PubChem BioAssay (NCI).
“And” between values parts separate entries of the source, which are not always exact repeats. Equal entries are not always repeated.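 Growth conditions: 96-well plates. Treatment: test compound, 48 hours, 5 concentrations. Analysis: linear interpolation between bracketing concentrations; unreached endpoints set to highest concentration. GI50 = concentration required for 50% inhibition of growth. TGI: total growth inhibition.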

Experiments:
Experiment in all cases: growth of human tumour cells (NCI), 48 h
BT-549 breast = system: BT-549 breast
EKVX NSCLC = system: EKVX NSCLC
HCC-2998 colon = system: HCC-2998 colon
KM12 colon = system: KM12 colon
MCF7 breast = system: MCF7 breast
MDA-MB-435 = system: MDA-MB-435
SK-MEL-28 melanoma = system: SK-MEL-28 melanoma
SK-MEL-5 melanoma = system: SK-MEL-5 melanoma
SNB-75 CNS = system: SNB-75 CNS
SW-620 colon = system: SW-620 colon
T-47D breast = system: T-47D breast
UACC-257 melanoma = system: UACC-257 melanoma
HCT-116 colon = system: HCT-116 colon

O=c1cnn(C/C=C/CP(=O)(O)O)c(=O)[nH]1
TGI (BT-549 breast): > 100 µM
TGI (EKVX NSCLC): > 100 µM
TGI (HCC-2998 colon): > 100 µM
TGI (KM12 colon): > 100 µM
TGI (MCF7 breast): > 100 µM
TGI (MDA-MB-435): > 100 µM
TGI (SK-MEL-28 melanoma): > 100 µM
TGI (SK-MEL-5 melanoma): > 100 µM
TGI (SNB-75 CNS): > 100 µM
TGI (SW-620 colon): > 100 µM
TGI (T-47D breast): > 100 µM
TGI (UACC-257 melanoma): > 100 µM

COc1cccc(N2C(=O)CSC2c2c[nH]c3ccccc23)c1 (stereo not given)
TGI (BT-549 breast): > 100 µM
TGI (EKVX NSCLC): > 100 µM
TGI (HCC-2998 colon): > 100 µM
TGI (HCT-116 colon): > 100 µM
TGI (KM12 colon): > 100 µM
TGI (MCF7 breast): > 100 µM
TGI (MDA-MB-435): > 100 µM
TGI (SK-MEL-28 melanoma): > 100 µM
TGI (SK-MEL-5 melanoma): > 100 µM
TGI (SNB-75 CNS): > 100 µM
TGI (SW-620 colon): > 100 µM
TGI (T-47D breast): > 100 µM
TGI (UACC-257 melanoma): > 100 µM

CCOC(=O)c1csc(NC(=O)CN2CCCCC2)n1
TGI (EKVX NSCLC): > 100 µM
TGI (HCC-2998 colon): > 100 µM
TGI (KM12 colon): > 100 µM
TGI (MCF7 breast): > 100 µM
TGI (MDA-MB-435): > 100 µM
TGI (SK-MEL-28 melanoma): > 100 µM
TGI (SK-MEL-5 melanoma): > 100 µM
TGI (SNB-75 CNS): > 100 µM
TGI (SW-620 colon): > 100 µM
TGI (T-47D breast): > 100 µM
TGI (UACC-257 melanoma): > 100 µM

COC(=O)C1C(O)C(C)C(O)C(C)/C=C\C=C(C)C(=O)Nc2c(C)c(OC(C)=O)c3c(c2O)C(=O)C(C)=C2OCOC(=C23)C(C)=CC(C)(O)C(O)C(C)C1O (stereo not given)
TGI (BT-549 breast): > 100 µM
GI50 (EKVX NSCLC): 48 µM and > 100 µM
TGI (EKVX NSCLC): 73.7 µM and > 100 µM
GI50 (HCC-2998 colon): > 100 µM
TGI (HCC-2998 colon): > 100 µM
GI50 (HCT-116 colon): 20.3 µM
TGI (HCT-116 colon): 49.6 µM and > 100 µM
GI50 (KM12 colon): 25.1 µM and > 100 µM
TGI (KM12 colon): > 100 µM
TGI (MCF7 breast): 51.1 µM and > 100 µM
TGI (MDA-MB-435): > 100 µM
GI50 (SK-MEL-28 melanoma): 21.7 µM
TGI (SK-MEL-28 melanoma): 44.7 µM and > 100 µM
TGI (SK-MEL-5 melanoma): 74.5 µM and > 100 µM
GI50 (SNB-75 CNS): 35.3 µM and 5.07 µM
TGI (SNB-75 CNS): > 100 µM
GI50 (SW-620 colon): 20.1 µM
TGI (SW-620 colon): 39.6 µM and > 100 µM
TGI (T-47D breast): > 100 µM
TGI (UACC-257 melanoma): 55.7 µM and 62.5 µM

CC(C)OP(=O)(OC(C)C)c1nn(-c2ccc([N+](=O)[O-])cc2)c(=N)s1
TGI (EKVX NSCLC): > 100 µM
TGI (HCC-2998 colon): > 100 µM
TGI (HCT-116 colon): > 100 µM
TGI (KM12 colon): > 100 µM
TGI (SK-MEL-28 melanoma): > 100 µM
TGI (SK-MEL-5 melanoma): > 100 µM
TGI (SNB-75 CNS): 95.5 µM
TGI (SW-620 colon): > 100 µM
TGI (UACC-257 melanoma): > 100 µM
